Data as given in patent US20250064762A1, “A SUBSTITUTED AROMATIC DICARBONIC ACID AMIDE AS AN INHIBITOR OF THE FERROPTOSIS SUPPRESSOR PROTEIN-1 (FSP1)” (JULIUS-MAXIMILIANS-UNIVERSITÄT WÜRZBURG, priority 2021, published 2025).

Experiments:
[1] = tested on: HT1080 GPX4-knockout (KO) cells; assay: Viability of GPX4-knockout cells after α-tocopherol wash-out; format: cell-based, human; conditions: 100 μM CPBA; 48-120 h after α-tocopherol wash-out
Method: The following HT1080 fibrosarcoma cell lines were generated using CRISPR/Cas9 technology, as previously described (Doll et al., 2019): HT1080 GPX4-knockout (KO) cells (maintained in the presence of 100 μM α-tocopherol); HT1080 GPX4 knockout cells overexpressing FSP1 (GPX4-KO/FSP1-OE); GPX4-KO cells overexpressing FSP1 and re-expressing GPX4 (GPX4-KO/FSP1-OE/GPX4-OE); HT1080 FSP1-WT or FSP1-KO cells; and HT1080 FSP1-KO cells reconstituted with either FSP1-WT or FSP1-G2A. LOX-IMVI (BRAF V600E heterozygous human melanoma cells) expressing either the Venus mock vector or FSP1-Venus (Doll et al., 2019) were grown in RPMI-1640 supplemented with 10% FCS, 2 mM L-glutamine and Pen/Strep.
In order to study the effect of CPBA-induced sensitization to ferroptosis in the absence of the ferroptosis suppressor GPX4, we generated HT1080 GPX4-knockout (KO) cells using CRISPR/Cas9 technology as described above. Lack of GPX4 expression in GPX4-KO cell lines was confirmed by Western Blot as described above (see FIG. 11). […] Cell viability was assessed at 48 h, 72 h, 96 h and 120 h using AquaBluer.

HT1080 cells = assay: Lipid peroxidation, BODIPY 581/591-C11 probe, flow cytometry; format: cell-based, human; conditions: 100 μM CPBA; 16 h; subeffective RSL3, FIN56 or BSO
Method: Approximately 10,000 HT1080 cells were seeded per well of a 48-well dish. The next day, cells were treated for 16 h with DMSO (0.1%, solvent control), CPBA (100 μM), or liproxstatin-1 (100 nM) in the absence or presence of subeffective concentrations of RSL3 (50 nM), FIN56 (50 nM), or BSO (1 μM). Cells were incubated with the BODIPY 581/591-C11 probe (1 μM) for 30 min at 37° C. in a tissue culture incubator, harvested by trypsinization, and resuspended in 500 μL phosphate-buffered saline supplemented with 0.5 mg/mL soybean trypsin inhibitor (Sigma Aldrich). Cells were analyzed using the 488-nm laser of a flow cytometer (FACSCalibur, BD Biosciences) for excitation. […] At least 5,000 cells were analyzed per sample. […]
Effects of CPBA on cellular lipid peroxidation were investigated using a BODIPY 581/591-C11 probe as described above. […] Oxidation of the polyunsaturated butadienyl portion of the dye results in a shift of the fluorescence emission peak from about 595 nm (nonoxidized form) to about 520 nm (oxidized form) (see FIG. 8).
HT1080 cells were incubated for 16 h with DMSO (0.1%, solvent control), CPBA (100 μM), or liproxstatin-1 (lip-1, 100 nM) in the absence or presence of subeffective concentrations of RSL3 (50 nM), FIN56 (50 nM), or BSO (1 μM). Fluorescence intensity was quantified by flow cytometry using a 530 nm band-pass filter as described above and quantified. […]

O=C(Nc1ccccc1C(=O)O)c1ccc(Oc2ccc(C(=O)Nc3ccccc3C(=O)O)cc2)cc1 [CPBA, 2-[[4-[4-[(2-carboxyphenyl)carbamoyl]phenoxy]benzoyl]amino]-benzoic acid]
ferroptosis in the absence of GPX4 [1]: accelerates ferroptosis in the absence of GPX4 | amount of lipid peroxidation (HT1080 cells): the amount of lipid peroxidation in the cells is increased
